Legend:
[1] = molecular target: Histone acetyltransferase KAT2A (Homo sapiens) (UniProt Q92830); details: time 30.0 min
[2] = molecular target: Bromodomain testis-specific protein (Homo sapiens) (UniProt Q58F21); assay: Binding affinity to BRDT BD1 (unknown origin) using biotinylated histone peptide H4 as substrate at 1 uM incubated for 2 hrs by AlphaScreen assay relative to control
[3] = molecular target: Histone acetyltransferase p300 (Homo sapiens) (UniProt Q09472); details: time 30.0 min
Homo sapiens [4] = species on record: Homo sapiens; details: time 30.0 min
Homo sapiens [5] = species on record: Homo sapiens; details: time 30.0 min; remark: listed apart in the source
[6] = molecular target: T1, Bromodomain-containing protein 7 (Homo sapiens) (UniProt Q9NPI1); details: time 30.0 min
T1 sequence (whole entry): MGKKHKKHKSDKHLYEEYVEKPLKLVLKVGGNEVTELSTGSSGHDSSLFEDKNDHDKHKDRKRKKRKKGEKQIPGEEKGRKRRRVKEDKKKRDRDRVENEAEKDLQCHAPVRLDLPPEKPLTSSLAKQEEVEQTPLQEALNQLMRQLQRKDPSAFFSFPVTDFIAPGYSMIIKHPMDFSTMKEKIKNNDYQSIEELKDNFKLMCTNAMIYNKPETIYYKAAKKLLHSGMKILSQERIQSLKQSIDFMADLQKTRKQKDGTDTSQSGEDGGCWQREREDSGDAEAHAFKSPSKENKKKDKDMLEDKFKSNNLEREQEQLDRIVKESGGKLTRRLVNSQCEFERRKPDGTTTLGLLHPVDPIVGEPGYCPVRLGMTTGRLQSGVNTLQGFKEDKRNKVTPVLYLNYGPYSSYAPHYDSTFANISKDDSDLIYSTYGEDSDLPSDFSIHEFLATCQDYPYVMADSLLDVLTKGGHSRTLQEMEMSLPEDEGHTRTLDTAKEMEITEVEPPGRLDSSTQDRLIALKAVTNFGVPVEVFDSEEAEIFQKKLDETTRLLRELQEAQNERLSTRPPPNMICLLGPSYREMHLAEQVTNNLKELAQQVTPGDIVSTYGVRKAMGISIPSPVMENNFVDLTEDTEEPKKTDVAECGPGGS

[7] = molecular target: Bromodomain adjacent to zinc finger domain protein 2B (Homo sapiens) (UniProt Q9UIF8); details: time 30.0 min
Peregrin (Homo sapiens) = molecular target: T2, Peregrin (Homo sapiens) (UniProt P55201); assay: Binding affinity to BRPF1 (unknown origin) using biotinylated histone peptide H4 as substrate at 1 uM incubated for 2 hrs by AlphaScreen assay relative to control
T2 sequence (whole entry): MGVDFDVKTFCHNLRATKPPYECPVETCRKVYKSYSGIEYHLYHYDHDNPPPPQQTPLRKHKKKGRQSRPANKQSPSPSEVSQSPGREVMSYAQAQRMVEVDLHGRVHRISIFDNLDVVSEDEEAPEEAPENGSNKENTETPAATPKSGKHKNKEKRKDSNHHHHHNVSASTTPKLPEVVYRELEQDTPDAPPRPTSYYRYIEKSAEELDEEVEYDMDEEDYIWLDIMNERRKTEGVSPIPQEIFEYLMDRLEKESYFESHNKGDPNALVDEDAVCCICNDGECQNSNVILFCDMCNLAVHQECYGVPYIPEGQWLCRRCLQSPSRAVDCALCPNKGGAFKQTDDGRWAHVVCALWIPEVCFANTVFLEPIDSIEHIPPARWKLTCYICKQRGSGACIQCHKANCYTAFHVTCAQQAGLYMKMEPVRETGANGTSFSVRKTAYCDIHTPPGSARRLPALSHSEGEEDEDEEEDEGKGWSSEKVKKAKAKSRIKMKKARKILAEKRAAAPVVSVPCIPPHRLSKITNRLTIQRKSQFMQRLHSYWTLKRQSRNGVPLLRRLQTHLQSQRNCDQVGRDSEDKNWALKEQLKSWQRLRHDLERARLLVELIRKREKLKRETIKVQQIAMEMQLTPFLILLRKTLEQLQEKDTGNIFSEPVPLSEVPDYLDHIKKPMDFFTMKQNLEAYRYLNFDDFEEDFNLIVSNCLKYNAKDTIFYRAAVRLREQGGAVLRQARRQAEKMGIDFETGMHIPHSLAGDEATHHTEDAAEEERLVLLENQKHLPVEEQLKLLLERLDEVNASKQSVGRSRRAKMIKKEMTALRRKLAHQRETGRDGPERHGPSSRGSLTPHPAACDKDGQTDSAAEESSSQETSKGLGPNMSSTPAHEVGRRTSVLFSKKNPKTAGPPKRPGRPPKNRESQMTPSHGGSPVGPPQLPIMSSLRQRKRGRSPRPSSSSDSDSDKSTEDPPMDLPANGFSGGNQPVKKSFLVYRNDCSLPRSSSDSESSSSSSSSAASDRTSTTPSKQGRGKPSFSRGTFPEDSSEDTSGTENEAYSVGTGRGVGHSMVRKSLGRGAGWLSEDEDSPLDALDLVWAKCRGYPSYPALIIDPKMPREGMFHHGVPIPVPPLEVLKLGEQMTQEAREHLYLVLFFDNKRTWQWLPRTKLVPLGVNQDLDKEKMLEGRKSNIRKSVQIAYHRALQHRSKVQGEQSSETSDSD

[8] = molecular target: T3, Bromodomain-containing protein 9 (Homo sapiens) (UniProt Q9H8M2); details: time 30.0 min
T3 sequence (whole entry): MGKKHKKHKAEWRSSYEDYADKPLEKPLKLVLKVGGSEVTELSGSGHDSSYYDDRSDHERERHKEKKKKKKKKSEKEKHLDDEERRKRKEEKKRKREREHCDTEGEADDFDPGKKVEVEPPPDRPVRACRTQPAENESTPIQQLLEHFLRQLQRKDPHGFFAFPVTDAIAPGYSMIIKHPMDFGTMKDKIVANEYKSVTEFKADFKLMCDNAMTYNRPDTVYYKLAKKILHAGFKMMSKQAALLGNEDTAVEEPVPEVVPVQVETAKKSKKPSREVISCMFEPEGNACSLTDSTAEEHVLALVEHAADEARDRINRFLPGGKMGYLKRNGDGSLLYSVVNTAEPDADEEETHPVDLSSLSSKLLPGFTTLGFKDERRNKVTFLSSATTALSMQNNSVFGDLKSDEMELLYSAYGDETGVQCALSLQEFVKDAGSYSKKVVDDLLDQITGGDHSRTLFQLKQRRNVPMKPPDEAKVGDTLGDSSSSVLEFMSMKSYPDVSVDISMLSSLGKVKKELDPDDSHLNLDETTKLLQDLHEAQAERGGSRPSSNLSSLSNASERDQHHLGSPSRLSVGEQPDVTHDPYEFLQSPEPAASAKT

[9] = molecular target: CREB-binding protein (Homo sapiens) (UniProt Q92793); details: time 30.0 min
Jurkat = assay: cells; details: Homo sapiens, 48 h
Description: Antiproliferative activity against human Jurkat cells assessed as inhibition of cell growth incubated for 48 hrs by MTT assay

Histone acetyltransferase p300 (Homo sapiens), sequence (Q09472 whole entry): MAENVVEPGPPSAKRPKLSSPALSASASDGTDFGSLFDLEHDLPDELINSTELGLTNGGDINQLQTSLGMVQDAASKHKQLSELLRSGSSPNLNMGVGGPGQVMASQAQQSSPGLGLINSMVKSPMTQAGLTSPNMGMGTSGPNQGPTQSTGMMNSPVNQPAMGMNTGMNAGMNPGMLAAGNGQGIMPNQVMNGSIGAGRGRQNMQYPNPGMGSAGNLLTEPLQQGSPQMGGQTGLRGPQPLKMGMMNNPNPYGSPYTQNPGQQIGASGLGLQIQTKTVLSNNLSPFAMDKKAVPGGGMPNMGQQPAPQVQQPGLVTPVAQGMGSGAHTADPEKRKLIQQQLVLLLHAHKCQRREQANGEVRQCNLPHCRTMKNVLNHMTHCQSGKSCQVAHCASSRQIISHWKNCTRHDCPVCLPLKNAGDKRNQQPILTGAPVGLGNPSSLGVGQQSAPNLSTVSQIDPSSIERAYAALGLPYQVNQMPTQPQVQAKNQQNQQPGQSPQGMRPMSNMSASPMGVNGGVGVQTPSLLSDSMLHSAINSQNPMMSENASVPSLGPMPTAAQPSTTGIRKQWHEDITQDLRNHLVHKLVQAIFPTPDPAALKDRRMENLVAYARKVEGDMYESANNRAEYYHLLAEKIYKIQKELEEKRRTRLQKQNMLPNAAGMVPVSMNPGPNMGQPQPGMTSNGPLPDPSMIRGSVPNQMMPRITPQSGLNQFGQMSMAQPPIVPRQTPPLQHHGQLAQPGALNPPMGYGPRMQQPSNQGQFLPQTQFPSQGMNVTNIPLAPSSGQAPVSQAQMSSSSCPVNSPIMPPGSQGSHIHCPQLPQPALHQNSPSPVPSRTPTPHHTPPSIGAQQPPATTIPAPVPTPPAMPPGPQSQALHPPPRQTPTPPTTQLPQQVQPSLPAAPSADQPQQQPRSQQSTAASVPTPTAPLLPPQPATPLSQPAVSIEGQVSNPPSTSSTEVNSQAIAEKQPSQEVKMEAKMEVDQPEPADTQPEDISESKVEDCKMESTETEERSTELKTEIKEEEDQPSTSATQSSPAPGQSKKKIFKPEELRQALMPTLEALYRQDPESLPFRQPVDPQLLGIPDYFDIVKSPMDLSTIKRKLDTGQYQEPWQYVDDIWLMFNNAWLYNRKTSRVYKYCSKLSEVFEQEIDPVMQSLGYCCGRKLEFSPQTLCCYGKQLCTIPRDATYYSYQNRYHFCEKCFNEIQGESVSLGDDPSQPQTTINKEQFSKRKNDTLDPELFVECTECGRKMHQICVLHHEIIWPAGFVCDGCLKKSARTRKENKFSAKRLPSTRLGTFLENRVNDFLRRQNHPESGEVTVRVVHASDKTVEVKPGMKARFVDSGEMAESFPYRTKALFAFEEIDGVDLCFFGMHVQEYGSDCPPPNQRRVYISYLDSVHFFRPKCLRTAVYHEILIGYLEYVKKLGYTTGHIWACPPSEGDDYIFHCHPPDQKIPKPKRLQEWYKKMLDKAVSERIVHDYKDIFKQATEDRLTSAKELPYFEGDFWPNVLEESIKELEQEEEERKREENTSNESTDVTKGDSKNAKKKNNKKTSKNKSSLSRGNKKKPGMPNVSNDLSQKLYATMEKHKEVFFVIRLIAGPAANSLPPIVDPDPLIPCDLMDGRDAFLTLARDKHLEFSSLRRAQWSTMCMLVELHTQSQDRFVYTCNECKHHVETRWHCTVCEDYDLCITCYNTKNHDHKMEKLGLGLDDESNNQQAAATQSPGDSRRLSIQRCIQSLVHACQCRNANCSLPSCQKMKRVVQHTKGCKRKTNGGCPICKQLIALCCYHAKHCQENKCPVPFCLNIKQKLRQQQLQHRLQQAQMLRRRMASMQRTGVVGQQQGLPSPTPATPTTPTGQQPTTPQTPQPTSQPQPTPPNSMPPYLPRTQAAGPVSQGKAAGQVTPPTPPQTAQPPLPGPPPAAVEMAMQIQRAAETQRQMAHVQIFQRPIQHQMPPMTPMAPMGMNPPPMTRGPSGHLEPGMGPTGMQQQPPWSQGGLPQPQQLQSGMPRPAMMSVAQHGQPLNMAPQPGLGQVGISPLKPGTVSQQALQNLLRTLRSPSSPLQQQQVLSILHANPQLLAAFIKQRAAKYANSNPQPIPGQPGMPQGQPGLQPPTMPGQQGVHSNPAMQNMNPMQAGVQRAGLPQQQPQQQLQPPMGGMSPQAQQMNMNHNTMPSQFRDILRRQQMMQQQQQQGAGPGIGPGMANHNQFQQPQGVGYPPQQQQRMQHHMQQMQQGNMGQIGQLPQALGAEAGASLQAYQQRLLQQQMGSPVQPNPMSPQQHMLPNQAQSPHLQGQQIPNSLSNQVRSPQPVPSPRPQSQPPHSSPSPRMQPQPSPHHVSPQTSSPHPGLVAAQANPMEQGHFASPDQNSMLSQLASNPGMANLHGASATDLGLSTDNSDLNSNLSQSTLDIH
Bromodomain adjacent to zinc finger domain protein 2B (Homo sapiens), sequence (Q9UIF8 whole entry, the tested form may be a part): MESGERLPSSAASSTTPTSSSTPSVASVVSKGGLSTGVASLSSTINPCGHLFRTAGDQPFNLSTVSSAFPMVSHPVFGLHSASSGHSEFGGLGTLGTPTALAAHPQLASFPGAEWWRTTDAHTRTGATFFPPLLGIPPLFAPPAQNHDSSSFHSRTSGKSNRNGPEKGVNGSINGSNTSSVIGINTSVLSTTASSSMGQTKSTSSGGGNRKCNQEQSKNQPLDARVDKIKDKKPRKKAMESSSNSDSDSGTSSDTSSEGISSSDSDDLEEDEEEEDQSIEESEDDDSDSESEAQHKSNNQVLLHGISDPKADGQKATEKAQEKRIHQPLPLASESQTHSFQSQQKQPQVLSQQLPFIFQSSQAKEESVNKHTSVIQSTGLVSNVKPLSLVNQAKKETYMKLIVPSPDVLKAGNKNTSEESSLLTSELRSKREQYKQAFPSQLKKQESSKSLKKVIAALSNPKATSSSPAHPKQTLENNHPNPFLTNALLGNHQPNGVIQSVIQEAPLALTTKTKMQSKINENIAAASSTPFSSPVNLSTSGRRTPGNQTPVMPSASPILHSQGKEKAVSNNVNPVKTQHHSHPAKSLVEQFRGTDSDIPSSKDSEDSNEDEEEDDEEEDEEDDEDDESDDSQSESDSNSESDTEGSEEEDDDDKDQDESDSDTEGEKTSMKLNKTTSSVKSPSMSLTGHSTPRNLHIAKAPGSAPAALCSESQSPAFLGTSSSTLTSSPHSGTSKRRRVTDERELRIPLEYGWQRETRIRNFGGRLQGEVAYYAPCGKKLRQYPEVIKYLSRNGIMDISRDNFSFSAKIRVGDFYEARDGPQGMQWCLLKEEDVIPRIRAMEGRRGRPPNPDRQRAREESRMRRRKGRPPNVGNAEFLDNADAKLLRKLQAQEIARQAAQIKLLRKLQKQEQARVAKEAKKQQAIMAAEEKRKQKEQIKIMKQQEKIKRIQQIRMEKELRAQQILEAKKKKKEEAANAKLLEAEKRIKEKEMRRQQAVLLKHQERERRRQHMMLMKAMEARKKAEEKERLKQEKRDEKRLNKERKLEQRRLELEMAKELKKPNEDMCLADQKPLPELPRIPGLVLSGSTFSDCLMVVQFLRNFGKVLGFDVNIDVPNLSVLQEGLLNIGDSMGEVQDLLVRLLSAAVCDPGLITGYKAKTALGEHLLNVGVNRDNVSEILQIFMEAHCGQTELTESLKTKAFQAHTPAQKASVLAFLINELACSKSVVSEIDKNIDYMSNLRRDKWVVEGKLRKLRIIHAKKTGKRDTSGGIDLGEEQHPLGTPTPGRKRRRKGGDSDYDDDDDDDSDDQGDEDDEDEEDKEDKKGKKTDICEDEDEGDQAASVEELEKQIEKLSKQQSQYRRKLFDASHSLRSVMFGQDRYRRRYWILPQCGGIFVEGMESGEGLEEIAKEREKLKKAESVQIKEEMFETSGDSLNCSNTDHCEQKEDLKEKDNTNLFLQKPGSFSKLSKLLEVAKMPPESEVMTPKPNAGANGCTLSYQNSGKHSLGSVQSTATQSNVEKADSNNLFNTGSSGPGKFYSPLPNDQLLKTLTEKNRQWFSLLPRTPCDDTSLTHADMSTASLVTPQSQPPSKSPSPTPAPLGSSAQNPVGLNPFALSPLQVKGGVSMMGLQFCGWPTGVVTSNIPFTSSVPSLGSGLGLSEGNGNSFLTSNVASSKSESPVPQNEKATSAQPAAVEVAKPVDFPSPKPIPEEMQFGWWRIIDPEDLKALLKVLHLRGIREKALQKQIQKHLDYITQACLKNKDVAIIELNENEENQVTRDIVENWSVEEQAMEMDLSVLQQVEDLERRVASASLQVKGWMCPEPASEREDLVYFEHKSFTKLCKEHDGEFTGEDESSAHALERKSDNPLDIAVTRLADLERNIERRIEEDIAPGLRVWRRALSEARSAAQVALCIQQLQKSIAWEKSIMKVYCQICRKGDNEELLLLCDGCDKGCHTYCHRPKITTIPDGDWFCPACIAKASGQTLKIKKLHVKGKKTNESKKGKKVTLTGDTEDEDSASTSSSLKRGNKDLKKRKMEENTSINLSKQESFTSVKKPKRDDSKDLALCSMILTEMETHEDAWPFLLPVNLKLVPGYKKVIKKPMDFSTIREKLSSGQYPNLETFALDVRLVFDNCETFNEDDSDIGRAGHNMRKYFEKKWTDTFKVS

| Compound | ΔTm [1] | Activity [2] | ΔTm [3] | ΔTm (Homo sapiens [4]) | ΔTm (Homo sapiens [5]) | ΔTm [6] | ΔTm [7] | Activity (Peregrin (Homo sapiens)) | ΔTm [8] | ΔTm [9] | IC50 (Jurkat) |
| --- | --- | --- | --- | --- | --- | --- | --- | --- | --- | --- | --- |
| COc1cc2c(cc1-c1c(C)noc1C)ncc1nc(C)n([C@H](C)c3ccccc3)c12 | 0 °C | > 80% | 5 °C | 0 °C | 0 °C | 0 °C | 0 °C | < 30% | 0 °C | 5 °C | 2080 nM |
| COc1cc2c(cc1-c1c(C)n[nH]c1C)ncc1nc(C)n([C@H](C)c3ccccc3)c12 | 0 °C | 50% | 0 °C | 0 °C | 0 °C | 0 °C | 0 °C | < 30% | 0 °C | 0 °C | 730 nM |

From ChEMBL document CHEMBL5532655, “Discovery of (R)-4-(8-methoxy-2-methyl-1-(1-phenylethy)-1H-imidazo[4,5-c]quinnolin-7-yl)-3,5-dimethylisoxazole as a potent and selective BET inhibitor for treatment of acute myeloid leukemia (AML) guided by FEP calculation” (Eur J Med Chem, 2024)
